Laboratory results taken from ChEMBL document CHEMBL2424650, “Optimization of anti-proliferative activity using a screening approach with a series of bis-heterocyclic G-quadruplex ligands” (Bioorg Med Chem Lett, 2013).

Key:
[1] = Binding affinity to duplex DNA (unknown origin) assessed as change in melting temperature at 1 uM by FRET assay
[2] = Binding affinity to duplex DNA (unknown origin) assessed as change in melting temperature at 5 uM by FRET assay
A549 = test: Antiproliferative activity against human A549 cells after 96 hrs by SRB assay; assay type: functional, cell-based; conditions: A549, 96 h
786-0 = test: Antiproliferative activity against human 786-0 cells after 96 hrs by SRB assay; assay type: functional, cell-based; conditions: 786-0, 96 h
[3] = Antiproliferative activity against human […] cells after 96 hrs by SRB assay; assay type: cell-based; conditions: WI-38, 96 h
MCF7 = test: Antiproliferative activity against human MCF7 cells after 96 hrs by SRB assay; assay type: functional, cell-based; conditions: MCF7, 96 h
[4] = Binding affinity to 21-mer Hsp90A promoter quadruplex (unknown origin) assessed as change in melting temperature at 1 uM by FRET assay
[5] = Binding affinity to c-kit2 G4-quadruplex DNA (unknown origin) assessed as change in melting temperature at 1 uM by FRET assay
[6] = Binding affinity to 21-mer Hsp90A promoter quadruplex (unknown origin) assessed as change in melting temperature at 5 uM by FRET assay
Homo sapiens [7] = species on record: Homo sapiens; test: Binding affinity to human F21T G4-telomeric quadruplex assessed as change in melting temperature at 5 uM by FRET assay
[8] = Antiproliferative activity against human RCC4 cells after 96 hrs by SRB assay; assay type: functional, cell-based; conditions: RCC4, 96 h
[9] = Binding affinity to c-kit2 G4-quadruplex DNA (unknown origin) assessed as change in melting temperature at 5 uM by FRET assay
Homo sapiens [10] = species on record: Homo sapiens; test: Binding affinity to human F21T G4-telomeric quadruplex assessed as change in melting temperature at 1 uM by FRET assay

Structure (SMILES)	ΔTm [1] [°C]	ΔTm [2] [°C]	IC50 (A549) [µM]	IC50 (786-0) [µM]	IC50 [3] [µM]	IC50 (MCF7) [µM]	ΔTm [4] [°C]	ΔTm [5] [°C]	ΔTm [6] [°C]	ΔTm (Homo sapiens [7]) [°C]	IC50 [8] [µM]	ΔTm [9] [°C]	ΔTm (Homo sapiens [10]) [°C]
c1cc(-c2cnc(-c3cccc(OCCN4CCCC4)c3)o2)cc(-c2cnc(-c3cccc(OCCN4CCCC4)c3)o2)c1	0	5.3	1	0.7	1	1.2	3.4	< 2	27.7	25.9	1.3	20.3	< 2
c1cc(-c2cnc(-c3cccc(NCCN4CCCC4)c3)o2)cc(-c2cnc(-c3cccc(NCCN4CCCC4)c3)o2)c1	0	6.8	0.6	1.1	1	2.1	< 2	< 2		24.7	1.1	17	< 2
CCN(CC)CCNc1cccc(-c2ncc(-c3cccc(-c4cnc(-c5cccc(NCCN(CC)CC)c5)o4)c3)o2)c1	0	0	2.5	1.3	2.8	3.1	< 2	< 2	19.5	13.3	1.1	13.6	< 2
CN1CCN(CCCNc2cccc(-c3ncc(-c4cccc(-c5cnc(-c6cccc(NCCCN7CCN(C)CC7)c6)o5)c4)o3)c2)CC1	0	0	1.2	0.9	1.1	1	< 2	< 2	25.6	20.1	1.2	18.3	< 2
CN1CCN(CCCNc2cccc(-c3ncc(-c4ccc5ccc(-c6cnc(-c7cccc(NCCCN8CCN(C)CC8)c7)o6)cc5c4)o3)c2)CC1	0	0	1.6	1.2	3.1	1.9	2.5	< 2	< 10	< 10	2.1	< 10	< 2
CN1CCN(CCCNc2cccc(-n3cc(-c4ccc5ccc(-c6cn(-c7cccc(NCCCN8CCN(C)CC8)c7)nn6)cc5c4)nn3)c2)CC1	0	0	> 25	8.7	15.3	> 25	5.7	2.4	< 10	< 10	8.4	< 10	2.9
c1cc(-c2cnc(-c3cccc(CN4CCCCC4)c3)o2)cc(-c2cnc(-c3cccc(CN4CCCCC4)c3)o2)c1	2		1.2	2.3	4.4	1.4	5	< 2			1.9		< 2
CN1CCN(CCCNc2ccc(-n3cc(-c4ccc5ccc(-c6cn(-c7ccc(NCCCN8CCN(C)CC8)cc7)nn6)cc5c4)nn3)cc2)CC1	0	0	> 25	> 25	> 25	> 25	< 2	< 2	< 10	< 10	> 25	< 10	< 2
